Assay results reported in patent publication US5807986A, “Methods of making and screening betide libraries” (The Salk Institute For Biological Studies, priority 1995, dated 1998).
Values joined by “and” are separate entries in the source; they are usually repeats but may differ in a detail not shown here. Identical values can stand only once. Where a SMILES comes first, the peptide text is derived from it. [ ]: non-standard residue; d: D form. dPhe(4-NH2) = Nc1ccc(C[C@@H](N)C(=O)O)cc1; dPhe(4-Cl) = N[C@H](Cc1ccc(Cl)cc1)C(=O)O; Phe(4-NH2) = Nc1ccc(C[C@H](N)C(=O)O)cc1; d2Nal = N[C@H](Cc1ccc2ccccc2c1)C(=O)O; Lys(iPr) = CC(C)NCCCC[C@H](N)C(=O)O; d3Pal = N[C@H](Cc1cccnc1)C(=O)O

Legend:
[1] = examination of rats for tolerance and gelling at the point of injection; format: in vivo; details: rats of the anti-ovulation test, injected in bacteriostatic water
Method: (§1) The betide is assayed in vivo to determine its effectiveness to prevent ovulation in female rats. In this test, a specified number of mature female Sprague-Dawley rats, e.g. five to ten, each having a body weight from 225 to 250 grams, are injected with a specified microgram dosage of the betide in bacteriostatic water at about noon on the day of proestrus. Proestrus is the […] of ovulation. A separate female rat group is used as a control to which the peptide is not administered. Each of the control female rats ovulates on the evening of proestrus; the number of the rats treated which ovulate is recorded. […] At a dosage of 1.0 microgram for isomer (1), all ovulate while for 1 μg of isomer (2), only 6 out of 14 rats ovulate and for 0.5 μg, 3 out of 4 rats ovulate. Isomer (2) is hereinafter referred to as Betide No. 1.

[2] = hydrophilicity by retention on RP-HPLC; format: physicochemical
mSSTR3 = molecular target: T1, mSSTR3 (Mus musculus, UniProt P30935); assay: inhibition of radioligand binding to cloned SRIF receptor mSSTR3; details: cloned mouse receptor expressed on COS and CHO cells
T1 construct: expressed in transfected cells; host or cells: COS and CHO cells
Method: (§2) In vitro Bioassay: The effects of the various somatostatin analogs are tested in vitro for their ability to bind to isolated cloned receptors expressed on COS and CHO cells.
(§3) Five such receptor subtypes termed SSTR1 through SSTR5, have been cloned and are reported and described in Raynor et al., Molecular Pharmacology, 43, 838-844 (1993) and in Raynor et al., Molecular Pharmacology, 44, 385-392 (1993).

mSSTR2 = molecular target: T2, mSSTR2 (Mus musculus, UniProt P30875); assay: inhibition of radioligand binding to cloned SRIF receptor mSSTR2; details: cloned mouse receptor expressed on COS and CHO cells
T2 construct: expressed in transfected cells; host or cells: COS and CHO cells
Method: as §2, §3

mSSTR1 = molecular target: T3, mSSTR1 (Mus musculus, UniProt P30873); assay: inhibition of radioligand binding to cloned SRIF receptor mSSTR1; details: cloned mouse receptor expressed on COS and CHO cells
T3 construct: expressed in transfected cells; host or cells: COS and CHO cells
Method: as §2, §3

ovulation in female rats = assay: standard in vivo rat anti-ovulation test; set-up: species or system Sprague-Dawley rats; details: injected at about noon on the day of proestrus
Method: as §1

T2 sequence (P30875 whole entry): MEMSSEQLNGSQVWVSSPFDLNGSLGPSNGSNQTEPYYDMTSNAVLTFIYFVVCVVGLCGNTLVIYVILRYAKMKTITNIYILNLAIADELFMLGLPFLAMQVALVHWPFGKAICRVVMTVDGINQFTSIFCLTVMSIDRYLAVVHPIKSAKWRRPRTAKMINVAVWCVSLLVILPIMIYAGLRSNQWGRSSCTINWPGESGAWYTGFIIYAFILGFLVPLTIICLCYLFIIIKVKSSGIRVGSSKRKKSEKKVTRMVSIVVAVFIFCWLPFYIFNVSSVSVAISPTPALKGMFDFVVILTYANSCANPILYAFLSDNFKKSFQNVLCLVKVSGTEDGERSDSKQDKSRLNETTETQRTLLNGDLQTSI
T3 sequence (P30873 whole entry): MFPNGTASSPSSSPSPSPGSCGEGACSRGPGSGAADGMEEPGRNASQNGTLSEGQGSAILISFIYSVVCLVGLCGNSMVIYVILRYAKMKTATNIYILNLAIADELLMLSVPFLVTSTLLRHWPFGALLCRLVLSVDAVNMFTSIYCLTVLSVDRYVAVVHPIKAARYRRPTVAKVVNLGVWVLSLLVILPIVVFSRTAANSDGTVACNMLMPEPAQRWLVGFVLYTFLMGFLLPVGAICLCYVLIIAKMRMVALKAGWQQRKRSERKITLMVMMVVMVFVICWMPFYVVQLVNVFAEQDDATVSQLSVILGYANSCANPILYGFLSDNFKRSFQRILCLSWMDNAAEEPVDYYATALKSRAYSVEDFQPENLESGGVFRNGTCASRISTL
T1 sequence (P30935 whole entry): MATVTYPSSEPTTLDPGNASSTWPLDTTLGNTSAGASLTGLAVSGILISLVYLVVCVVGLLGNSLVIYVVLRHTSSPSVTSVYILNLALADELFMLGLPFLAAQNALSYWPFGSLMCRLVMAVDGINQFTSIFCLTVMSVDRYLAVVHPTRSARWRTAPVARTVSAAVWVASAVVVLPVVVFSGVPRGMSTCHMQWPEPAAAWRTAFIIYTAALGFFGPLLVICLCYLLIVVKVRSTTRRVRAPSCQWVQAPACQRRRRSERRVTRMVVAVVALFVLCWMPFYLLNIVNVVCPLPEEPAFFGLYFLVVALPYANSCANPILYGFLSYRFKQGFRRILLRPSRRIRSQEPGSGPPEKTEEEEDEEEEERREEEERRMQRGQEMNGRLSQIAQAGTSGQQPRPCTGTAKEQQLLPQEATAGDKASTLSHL

Row | IC50 (mSSTR2) [nM] | IC50 (mSSTR1) | Molecule | rats ovulating out of rats treated (ovulation in female rats; dosage 5 μg) | other results
1 | – | – | CC(=O)Nc1ccc(C[C@H](NC(=O)[C@H](CO)NC(=O)C(NC(=O)c2cccnc2)NC(=O)[C@@H](Cc2ccc(Cl)cc2)NC(=O)[C@@H](Cc2ccc3ccccc3c2)NC(C)=O)C(=O)N[C@H](Cc2ccc(NC(C)=O)cc2)C(=O)N[C@@H](CC(C)C)C(=O)N[C@@H](CCCCNC(C)C)C(=O)N2CCC[C@H]2C(=O)N[C@H](C)C(N)=O)cc1 (single isomer, unassigned) [Betide No. 1, [Ac-β-D-2NAL^1, (4Cl)D-Phe^2, D/L Agl(nicotinoyl)^3, Aph(Ac)^5, D-Aph(Ac)^6, ILys^8, D-Ala^10]-GnRH] | – | tolerance and gelling at the point of injection [1]: very well tolerated, with no significant gelling at the point of injection being detectable
2 | – | – | CC(=O)Nc1ccc(C[C@H](NC(=O)[C@H](CO)NC(=O)[C@@H](Cc2cccnc2)NC(=O)[C@@H](Cc2ccc(Cl)cc2)NC(=O)[C@@H](Cc2ccc3ccccc3c2)NC(C)=O)C(=O)N[C@H](Cc2ccc(NC(C)=O)cc2)C(=O)N[C@@H](CC(C)C)C(=O)N[C@@H](CCCCNC(C)C)C(=O)N2CCC[C@H]2C(=O)N[C@H](C)C(N)=O)cc1 [Acyline, Ac-β-D-2NAL-(4Cl)D-Phe-D-3PAL-Ser-Aph(Ac)D-Aph(Ac)-Leu-ILys-Pro-D-Ala-NH2, reference compound] (Ac-[d2Nal][dPhe(4-Cl)][d3Pal]S[Phe(4-NH2)](Ac)[dPhe(4-NH2)](Ac)L[Lys(iPr)]P[dA]-NH2) | – | retention using RP-HPLC (hydrophilicity) ([2]; gradient 40% to 75% Buffer B over 30 minutes, Buffer A TEAP pH 7.3, Buffer B 60% CH3CN and 40% Buffer A): 24.1 min
3 | > 1000 | > 1000 nM | C[C@@H](O)[C@@H]1NC(=O)[C@H](CCCCN)NC(=O)C(NC(=O)c2ccc3ccccc3c2)NC(=O)[C@H](Cc2ccccc2)NC(=O)[C@H](Cc2ccccc2)NC(=O)[C@@H](N)CSSC[C@@H](C(=O)O)NC(=O)[C@H](Cc2ccccc2)NC1=O (stereo partly drawn) [Betide No. 7, (cyclo 1-8)H-Cys-Phe-Phe-(2-naphthylamido)Gly-Lys-Thr-Phe-Cys-OH] | – | IC50 (mSSTR3): > 1000 nM
4 | > 1000 | > 1000 nM and 600 nM | C[C@@H](O)[C@@H]1NC(=O)[C@H](CCCCN)NC(=O)C(N(C)C(=O)c2ccc3ccccc3c2)NC(=O)[C@H](Cc2ccccc2)NC(=O)[C@H](Cc2ccccc2)NC(=O)[C@@H](N)CSSC[C@@H](C(=O)O)NC(=O)[C@H](Cc2ccccc2)NC1=O (stereo partly drawn) [Betide No. 7A, (cyclo 1-8)H-Cys-Phe-Phe-(β-methyl-γ-2-naphthyl)D/L(amido)Gly-Lys-Thr- Phe-Cys-OH] | – | –
5 | > 1000 | > 1000 nM | C[C@@H](O)[C@@H]1NC(=O)C(NC(=O)CCN)NC(=O)[C@@H](Cc2c[nH]c3ccccc23)NC(=O)[C@H](Cc2ccccc2)NC(=O)[C@H](Cc2ccccc2)NC(=O)[C@@H](N)CSSC[C@@H](C(=O)O)NC(=O)[C@H](Cc2ccccc2)NC1=O (stereo partly drawn) [Betide No. 8, (cyclo 1-8)H-Cys-Phe-Phe-D-Trp-γ-(2-aminoethyl)amido-glycine-Thr-Phe-Cys-OH] | – | IC50 (mSSTR3): > 1000 nM
6 | – | – | Ac-β-D-2NAL-(4Cl)D-Phe-D-3PAL-Ser-(4-Acetyl-amino-benzyl)D/L-amidoGly-D-Aph(acetyl)-Leu-Lys(isopropyl)-Pro-D-Ala-NH2 [Betide No. 4] | 2 out of 8 | –
7 | – | – | Ac-β-D-2NAL-(4Cl)D-Phe-D-3PAL-Ser-Aph(acetyl)-γ-(4-acetamidophenyl)D/L-amidoGly-Leu-Lys (isopropyl)-Pro-D-Ala-NH2 [Betide No. 5] | 1 out of 8 | rats ovulating out of rats treated (ovulation in female rats; dosage 2.5 μg): 2 out of 4
8 | – | – | Ac-β-D-2NAL-(4Cl)D-Phe-D-3PAL-Ser-γ-(4-hydroxyphenyl)D/L-amidoGly-D-Aph(acetyl)-Leu-Lys(isopropyl)-Pro-D-Ala-NH2 [Betide No. 4A] | 2 out of 16 | –
9 | – | – | Ac-β-D-2NAL-(4Cl)D-Phe-D-(3-pyridyl)Ala-Ser-Aph(acetyl)-D-Aph(acetyl)-D/L-Agl(Acetyl)-Lys(isopropyl)-Pro-D-Ala-NH2 [Betide No. 2] | 5 out of 8 | rats ovulating out of rats treated (ovulation in female rats; dosage 10 μg): 0 out of 8; hydrophilicity compared to Acyline ([2]; RP-HPLC): more hydrophilic than Acyline
10 | – | – | [Ac-βCH3 -D-2NAL^1, 4ClD-Phe^2, D-3PAL^3, Aph(atz)^5, D-Aph(atz)^6, ILys^8, D-Ala^10 ]-GnRH [E stereoisomer] | – | rats ovulating out of rats treated (ovulation in female rats; dosage 1.0 μg): partially active; rats ovulating out of rats treated (ovulation in female rats; dosage 2.5 μg): fully active
